Article PMC4959752, “Pharmacokinetics in Wistar Rats of 5-[(4-Carboxybutanoyl)Amino]-2-Hydroxybenzoic Acid: A Novel Synthetic Derivative of 5-Aminosalicylic Acid (5-ASA) with Possible Anti-Inflammatory Activity” (PLoS ONE, 2016)
Values joined by “and” are separate entries in the source; they are usually repeats but may differ in a detail not shown here. Equal values may be shown once. “Also recorded” adds a separate entry of the source. Read-outs that look alike come from different tables or passages of the source.

How the values were obtained:
[1] = Tissue distribution study; format: in vivo, Wistar rats
Protocol: […] The animals were sacrificed 10, 30, 90, 180 and 360 min after dosing (n = 3 per treatment time). The whole brain, heart, liver, spleen, lung, kidney, stomach, small intestine, colon, testicles and muscle were rapidly dissected, harvested and thoroughly rinsed in ice-cold saline to eliminate blood and other content. All tissues and organs were weighed on an analytical balance and immediately processed for analysis. Each tissue sample was homogenized with saline solution at a 1:3 (wt/v) ratio. The preparation process for analysis was the same as that described above for plasma.

[2] = Blood-plasma partitioning (BP ratio); format: in vitro ADME, Wistar rats; conditions: Wistar rat blood, 37°C, 4 h
Protocol: […] The plasma was separated from blood samples, and the concentration of C2 was determined based on a standard curve prepared with blank plasma using the RP-HPLC method. […] The concentration of C2 in blood cells was assumed to be equal to its unbound concentration in the plasma.

[3] = Pharmacokinetic study of C2 in Wistar rats (plasma, HPLC, non-compartmental analysis); format: in vivo; conditions: for k el: read-out: Ke (converted); for bioavailability: i.g. 100 mg/kg vs i.v. 50 mg/kg, read-out: F% orally (absolute oral bioavailability)
From the text: Prior to the studies (on the day of C2 administration), the Wistar rats (n = 6) were cannulated. For intravenous (i.v.) treatment, a 24 G catheter was placed in the right lateral tail vein (for blood collection), and another catheter was placed in the left (for C2 administration) lateral tail vein of the rat as follows: the animal was placed inside a trap (special acrylic stocks for rats), the rat tail was exposed, and the distal region of the tail was disinfected with 70% ethanol; the tail veins were then dilated using a heating pad (approximately 45°C). An assistant held the tail of the rat while the left lateral vein was located, and a 24 G catheter was then firmly inserted into the posterior third of the caudal vein of the animal, where it was fixed with adhesive tape (for intragastric and intraperitoneal studies, only one catheter was placed on the right for blood collection).
For the intravenous study, a single dose of 50 mg/kg C2 was administered through the 24 G catheter when the rat was inside the trap. For the intragastric (i.g) pharmacokinetic study, a second group of rats (n = 6) received a single dose of 100 mg/kg using a 20 G gavage needle (animals were provided with a standard diet 4 h after dosing). For the intraperitoneal (i.p.) treatment, a third group of rats (n = 6) was injected with 75 mg/kg C2. In all pharmacokinetic studies, approximately 250 μL of blood was collected in heparinized tubes from each rat via the catheter in the right lateral tail vein prior to dosing and 5, 10, 20, 30, 45, 60, 90, 120, 180, 240, 300, 360, 540, 720 and 1440 min after dosing. These blood samples were supplemented with an equal volume of 0.9% sodium chloride solution. Plasma (100 μL) was harvested by centrifuging the blood samples at 8,000 rpm for 15 min, and the plasma was then immediately processed for analysis.
The samples were prepared as follows: briefly, 450 μL of acetonitrile was added to 100 μL of rat plasma, and the mixture was vortexed for 5 min. Subsequently, 450 μL of methanol was added to the sample, which was then vortexed again and centrifuged to precipitate proteins. Subsequently, 10 μL of the supernatant was introduced into the HPLC system. The plasma concentrations of C2 were determined using an RP-HPLC with UV detection method that had previously been validated for pharmacokinetic studies and the complementary assays performed in this work.
The plasma concentration–time data obtained after the i.v., i.g., and i.p. administration of C2 were subjected to a non-compartmental analysis using statistical moment theory. The pharmacokinetic parameters of C2 were calculated using the Kinetica 5.0 software (Adept Scientific Ltd), including the maximum plasma concentration (Cmax), time to reach Cmax (Tmax), elimination half-life (t1/2), area under the plasma concentration-time curve from time zero to the last measurable concentration (AUC0-t), area under the plasma concentration-time curve from time zero to infinity (AUCtot), mean residence time (MRT), clearance (CL), and apparent volume of distribution (Vd).

Wistar rats = tested on: Wistar rats; design: method as in ref 37 = [37]; 37 OECD Guidelines for the Testing of Chemicals 425: Acute Oral Toxicity—Up-and-Down-Procedure (UDP). 2008.; conditions: acute toxicity; cited from earlier work
Log P = format: physicochemical; conditions: method not given
CD1 mice = tested on: CD1 mice; design: method as in ref 37 = [37]; 37 OECD Guidelines for the Testing of Chemicals 425: Acute Oral Toxicity—Up-and-Down-Procedure (UDP). 2008.; conditions: acute toxicity; cited from earlier work
[4] = pharmacokinetic model (Kinetica 5.0), bi-exponential decline of plasma concentration
[5] = pharmacokinetic model (Kinetica 5.0), calculated
[6] = rat, plasma, ip, single dose (100 mg/kg in abstract, 75 mg/kg in methods), Wistar rats
[7] = rat, plasma, iv, single dose 50 mg/kg, Wistar rats
[8] = rat, plasma, i.g. (oral), single dose 100 mg/kg, Wistar rats

O=C(O)CCCC(=O)Nc1ccc(O)c(C(=O)O)c1 [C2, 5-[(4-carboxybutanoyl)amino]-2-hydroxybenzoic acid]
crossing of blood-brain barrier / hemato-testicular barrier (presence in brain and testicles) ([1]; Wistar rats, i.g. and i.p.): effectively crossed the blood-brain barrier and hemato-testicular barrier; also recorded: able to cross the blood brain barrier
tissue distribution ([1]; i.g. and i.p. routes, before the 2 h time point): widely distributed in all examined tissues
tissue distribution ([1]; single intragastric or oral dose (100 mg/kg), Wistar rats, 100 mg/kg): distributed and detected in all examined tissues (including the brain and colon); also recorded: well distributed in all tissues
BP ratio ± SD ([2]; 5 μg/mL): 0.71 and 0.71 ± 0.01
BP ratio ± SD ([2]; 10 μg/mL): 0.6 and 0.60 ± 0.03
detection in the plasma ([3]; 6 h after administration): no longer detected
half-life ([3]; Wistar, rat, plasma, ip, 75 mg/kg, i.p., single dose (100 mg/kg in abstract, 75 mg/kg in methods), Wistar rats, read-out: t1/2 e): 38 ± 3 min
half-life ([3]; Wistar, rat, plasma, iv, 50 mg/kg, i.v., single dose 50 mg/kg, Wistar rats, read-out: t1/2 e (elimination half-life)): ~33 min
Tmax ([3]; Wistar, rat, plasma, iv, 50 mg/kg, single dose 50 mg/kg, Wistar rats): 5 min
half-life ([3]; Wistar, rat, plasma, pharmacokinetic model (Kinetica 5.0), read-out: elimination half-life α (t1/2α)): 18 min
half-life ([3]; Wistar, rat, plasma, pharmacokinetic model (Kinetica 5.0), read-out: elimination half-life β (t1/2β)): 62 min
half-life ([3]; Wistar, rat, plasma, po, 100 mg/kg, i.g. (oral), single dose 100 mg/kg, Wistar rats, read-out: t1/2 e): ~27 min
Cmax ([3]; i.g. (oral), single dose 100 mg/kg, Wistar rats, plasma): 2500 ± 300 ng/mL
Ka ([3]; i.p., single dose (100 mg/kg in abstract, 75 mg/kg in methods), Wistar rats): 1.2 ± 0.2 h⁻¹
Cp^0 ([3]; i.v., single dose 50 mg/kg, Wistar rats): 26900 ± 3700 ng/mL
α [3, 4]: 0.037 min⁻¹
β [3, 4]: 0.011 min⁻¹
K12 [3, 5]: 0.008 min⁻¹
K21 [3, 5]: 0.022 min⁻¹
AUC [3, 6]: 12500 ng·h/mL
MRT [3, 6]: 69 min
Cmax ([3]; rat, plasma, ip, single dose (100 mg/kg in abstract, 75 mg/kg in methods), Wistar rats, read-out: Cmax): 8700 ± 400 ng/mL
k el [3, 6]: 0.00025 s⁻¹
AUC [3, 7]: 20800 ng·h/mL
MRT [3, 7]: 57 min
Vd [3, 7]: 2 ± 0.2 L/kg
clearance [3, 7]: 13 ± 3 mL/min
k el [3, 7]: 0.000361 s⁻¹
bioavailability ([3]; rat, plasma, oral, Wistar rats): ~13%
bioavailability ([3]; rat, plasma, po, Wistar rats): 13%
Cmax ([3]; rat, plasma, po, intragastric administration, 100 mg/kg, Wistar rats (abstract), read-out: Cmax): 2500 ng/mL
AUC [3, 8]: 2620 ng·h/mL
MRT [3, 8]: 49 min
k el [3, 8]: 0.0005 s⁻¹
LD50 (Wistar rats): > 2000 mg/kg
logP (Log P): 1.3
LD50 (CD1 mice): > 2000 mg/kg
